Patent publication US11629171B2, “Beta-hairpin peptidomimetics” (POLYPHOR AG, priority 2017, dated 2023)
In brackets after ≈: the same amount, converted by molar mass. Where a SMILES comes first, the peptide text is derived from it. Bridges are numbered along the chain shown (N, C = ends). Roman numbers before positions name the chains, in order. [ ]: non-standard residue; d: D form. Thr(ol) = C[C@@H](O)[C@H](N)CO; Tle = CC(C)(C)[C@H](N)C(=O)O; Hiv = CC(C)[C@H](O)C(=O)O; dDab = NCC[C@@H](N)C(=O)O; hSer = N[C@@H](CCO)C(=O)O; Orn = NCCC[C@H](N)C(=O)O; Dab = NCC[C@H](N)C(=O)O; Dap = NC[C@H](N)C(=O)O

Experiments:
Type in all cases: cell-based
[1] = system: Acinetobacter baumannii DSM 30008; settings: DSM 30008
Procedure, shortened: (§1)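 MIC in μg/mL, read as absence of visible growth after 18-20 h incubation at 35° C, by standard CLSI microdilution. Peptides tested in two-fold serial dilution in cation-adjusted MH-II broth containing 0.002% (final) Polysorbate 80, against roughly 10^6 CFU/mL inocula.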

[2] = system: Acinetobacter baumannii 872842; settings: 872842
Procedure, shortened: as §1

[3] = system: Pseudomonas aeruginosa ATCC 27853; settings: ATCC 27853
Procedure, shortened: as §1

[4] = system: Klebsiella pneumoniae 968733; settings: 968733
Procedure, shortened: as §1

[5] = system: Klebsiella pneumoniae SSI #3010; settings: SSI #3010
Procedure, shortened: as §1

[6] = system: Escherichia coli ATCC 25922; settings: ATCC 25922
Procedure, shortened: as §1

Escherichia coli 926415 = settings: 926415
Procedure, shortened: as §1

[7] = system: Enterobacter cloacae 848840; settings: 848840
Procedure, shortened: as §1

[8] = system: human red blood cells (hRBC); assay: Hemolysis; settings: red cells of human, 1 h, 200
Procedure, shortened: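 Hemoglobin release from PBS-washed hRBC at 20% (v/v), incubated 1 h at 37° C with peptides at 200 μg/mL, is measured at 540 nm. Values are blank corrected and given as a fraction of Triton X-100 lysis × 100%.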

| Compound | Acinetobacter baumannii DSM 30008 MIC [1] | MIC [2] | Pseudomonas aeruginosa ATCC 27853 MIC [3] | MIC [4] | Klebsiella pneumoniae SSI #3010 MIC [5] | Escherichia coli ATCC 25922 MIC [6] | MIC (Escherichia coli 926415) | MIC [7] | Hemolysis at 200 μg/mL [8] | MIC [1] | MIC [3] | MIC [5] | MIC [6] |
| --- | --- | --- | --- | --- | --- | --- | --- | --- | --- | --- | --- | --- | --- |
| CC(C)C[C@@H]1NC(=O)[C@@H](CC(C)C)NC(=O)[C@H](CCN)NC(=O)[C@@H](NC(=O)[C@H](CN)NC(=O)[C@@H](NC(=O)[C@H](CCN)NC(=O)CC[C@@H]2NC(=O)[C@H](CCN)NC(=O)[C@H](Cc3ccc(O)cc3)NC(=O)[C@@H](NC(=O)[C@@H](O)C(C)C)CCN(C)C(=O)C[C@@H](C(=O)N[C@@H](CO)C(N)=O)NC(=O)[C@H](C(C)C)NC(=O)[C@H](CO)NC(=O)[C@H](Cc3c[nH]c4ccccc34)NC(=O)[C@H](CO)NC(=O)[C@@H](CCN)NC2=O)[C@@H](C)O)CCNC(=O)[C@H]([C@@H](C)O)NC(=O)[C@H](CCN)NC(=O)[C@H](CCN)NC1=O [Ex. 304] | 0.25 µg/mL | 1 µg/mL (≈ 0.423 µM) | 0.25 µg/mL | 4 µg/mL (≈ 1.69 µM) | 0.0625 µg/mL | 0.125 µg/mL | 2 µg/mL (≈ 0.846 µM) | 2 µg/mL (≈ 0.846 µM) | <1% |  |  |  |  |
| CC(=O)N[C@H](C(=O)N[C@H]1CSSC[C@@H](C(=O)N[C@@H](CO)C(N)=O)NC(=O)[C@H](C(C)(C)C)NC(=O)[C@H](CO)NC(=O)[C@H](Cc2c[nH]c3ccccc23)NC(=O)[C@H](CO)NC(=O)[C@@H](CCN)NC(=O)[C@H](CCC(=O)N[C@@H](CCN)C(=O)N[C@H](C(=O)N[C@@H](CN)C(=O)N[C@H]2CCNC(=O)[C@H]([C@@H](C)O)NC(=O)[C@H](CCN)NC(=O)[C@H](CCN)NC(=O)[C@H](CC(C)C)NC(=O)[C@@H](CC(C)C)NC(=O)[C@H](CCN)NC2=O)[C@@H](C)O)NC(=O)[C@H](CN)NC(=O)[C@H](Cc2ccc(O)cc2)NC1=O)C(C)C [Ex. 117] (I: Ac-VCY[Dap]E[dDab]SWS[Tle]CS-NH2 / II: [Dab]T[Dap][Dab][Dab][dL]L[Dab][Dab]T; disulfide I:2-I:11; amide I:5-II:N; lactam II:4-II:C) |  | 0.01562 µg/mL (≈ 0.00651 µM) |  | 0.0625 µg/mL (≈ 0.0261 µM) |  |  | 0.0625 µg/mL (≈ 0.0261 µM) | 0.0625 µg/mL (≈ 0.0261 µM) | 2% | 0.01562 µg/mL (≈ 0.00651 µM) | 0.125 µg/mL (≈ 0.0521 µM) | 0.0625 µg/mL (≈ 0.0261 µM) | 0.0625 µg/mL (≈ 0.0261 µM) |
| CC(=O)N[C@H](C(=O)N[C@H]1CCCNC(=O)[C@@H]([C@H](C)O)NC(=O)[C@H](C(C)C)NC(=O)[C@H](CO)NC(=O)[C@H](Cc2c[nH]c3ccccc23)NC(=O)[C@H](CCO)NC(=O)[C@@H](CCN)NC(=O)[C@H](CCC(=O)N[C@@H](CCN)C(=O)N[C@H](C(=O)N[C@@H](CN)C(=O)N[C@H]2CCNC(=O)[C@H]([C@@H](C)O)NC(=O)[C@H](CCN)NC(=O)[C@H](CCN)NC(=O)[C@H](CC(C)C)NC(=O)[C@@H](CC(C)C)NC(=O)[C@H](CCN)NC2=O)[C@@H](C)O)NC(=O)[C@H](CCN)NC(=O)[C@H](Cc2ccc(O)cc2)NC1=O)C(C)C [Ex. 31] (I: Ac-V[Orn]Y[Dab]E[dDab][hSer]WSV[dT] / II: [Dab]T[Dap][Dab][Dab][dL]L[Dab][Dab]T; lactam I:2-I:C, II:4-II:C; amide I:5-II:N) |  | 0.125 µg/mL (≈ 0.0539 µM) |  | 0.125 µg/mL (≈ 0.0539 µM) |  |  | 0.5 µg/mL (≈ 0.216 µM) | 0.125 µg/mL (≈ 0.0539 µM) | <1% | 0.03125 µg/mL (≈ 0.0135 µM) | 0.25 µg/mL (≈ 0.108 µM) | 0.0625 µg/mL (≈ 0.0269 µM) | 0.03125 µg/mL (≈ 0.0135 µM) |
| CC(C)C[C@@H]1NC(=O)[C@@H](CC(C)C)NC(=O)[C@H](CCN)NC(=O)[C@@H](NC(=O)[C@H](CCN)NC(=O)[C@@H](NC(=O)[C@H](CCN)NC(=O)CC[C@@H]2NC(=O)[C@@H]3CSSC[C@H](NC(=O)[C@H](Cc4c[nH]c5ccccc45)NC(=O)[C@H](CCO)NC(=O)[C@@H](CCN)NC2=O)C(=O)N[C@@H](C(C)C)C(=O)N[C@H](C(=O)N[C@@H](CO)C(N)=O)CSSC[C@H](NC(=O)[C@@H](N)C(C)C)C(=O)N[C@@H](Cc2ccc(O)cc2)C(=O)N3)[C@@H](C)O)CCNC(=O)[C@H]([C@@H](C)O)NC(=O)[C@H](CCN)NC(=O)[C@H](CCN)NC1=O [Ex. 176] (I: H-VCYCE[dDab][hSer]WCVCS-NH2 / II: [Dab]T[Dab][Dab][Dab][dL]L[Dab][Dab]T; disulfide I:2-I:11, I:4-I:9; amide I:5-II:N; lactam II:4-II:C) |  | 0.125 µg/mL (≈ 0.052 µM) |  | 0.25 µg/mL (≈ 0.104 µM) |  |  | 0.25 µg/mL (≈ 0.104 µM) | 0.5 µg/mL (≈ 0.208 µM) | <1% | 0.125 µg/mL (≈ 0.052 µM) | 0.125 µg/mL (≈ 0.052 µM) | 0.125 µg/mL (≈ 0.052 µM) | 0.0625 µg/mL (≈ 0.026 µM) |
| CC(C)C[C@@H]1NC(=O)[C@@H](CC(C)C)NC(=O)[C@H](CCN)NC(=O)[C@@H](NC(=O)[C@H](CN)NC(=O)[C@@H](NC(=O)[C@H](CCN)NC(=O)CC[C@@H]2NC(=O)[C@H](CCN)NC(=O)[C@H](Cc3ccc(O)cc3)NC(=O)[C@@H](NC(=O)[C@@H](O)C(C)C)CCNC(=O)C[C@@H](C(=O)N[C@@H](CO)C(N)=O)NC(=O)[C@H](C(C)C)NC(=O)[C@H](CO)NC(=O)[C@H](Cc3c[nH]c4ccccc34)NC(=O)CNC(=O)[C@@H](CCN)NC2=O)[C@@H](C)O)CCNC(=O)[C@H]([C@@H](C)O)NC(=O)[C@H](CCN)NC(=O)[C@H](CCN)NC1=O [Ex. 347] (I: H-[Hiv][Dab]Y[Dab]E[dDab]GWSVDS-NH2 / II: [Dab]T[Dap][Dab][Dab][dL]L[Dab][Dab]T; lactam I:2-I:11, II:4-II:C; amide I:5-II:N) | 0.125 µg/mL | 0.25 µg/mL (≈ 0.108 µM) | 0.125 µg/mL | 1 µg/mL (≈ 0.431 µM) | 0.0625 µg/mL | 0.0625 µg/mL | 0.25 µg/mL (≈ 0.108 µM) | 0.5 µg/mL (≈ 0.215 µM) | <1% |  |  |  |  |
| CC(=O)N[C@H](C(=O)N[C@H]1CSSC[C@@H](C(=O)N[C@@H](CO)C(N)=O)NC(=O)[C@H](C(C)C)NC(=O)[C@H](CO)NC(=O)[C@H](Cc2c[nH]c3ccccc23)NC(=O)[C@H](CO)NC(=O)[C@@H](CCN)NC(=O)[C@H](CCC(=O)N[C@@H](CCN)C(=O)N[C@H](C(=O)N[C@@H](CN)C(=O)N[C@H]2CCNC(=O)[C@H]([C@@H](C)O)NC(=O)[C@H](CCN)NC(=O)[C@H](CCN)NC(=O)[C@H](CC(C)C)NC(=O)[C@@H](CC(C)C)NC(=O)[C@H](CCN)NC2=O)[C@@H](C)O)NC(=O)[C@H](Cc2c[nH]cn2)NC(=O)[C@H](Cc2ccc(O)cc2)NC1=O)C(C)C [Ex. 328] (I: Ac-VCYHE[dDab]SWSVCS-NH2 / II: [Dab]T[Dap][Dab][Dab][dL]L[Dab][Dab]T; disulfide I:2-I:11; amide I:5-II:N; lactam II:4-II:C) | 0.01562 µg/mL | 0.0625 µg/mL (≈ 0.0257 µM) | 0.0625 µg/mL | 0.25 µg/mL (≈ 0.103 µM) | 0.125 µg/mL | 0.01562 µg/mL | 0.125 µg/mL (≈ 0.0513 µM) | 0.0625 µg/mL (≈ 0.0257 µM) | 1% |  |  |  |  |
| CC(=O)N[C@@H](Cc1ccccc1)C(=O)N[C@H]1CCCNC(=O)[C@@H]([C@H](C)O)NC(=O)[C@H](C(C)(C)C)NC(=O)[C@H](CO)NC(=O)[C@H](Cc2c[nH]c3ccccc23)NC(=O)[C@H](CCO)NC(=O)[C@@H](CCN)NC(=O)[C@H](CCC(=O)N[C@@H](CCN)C(=O)N[C@H](C(=O)N[C@@H](CN)C(=O)N[C@H]2CCNC(=O)[C@H]([C@@H](C)O)NC(=O)[C@H](CCN)NC(=O)[C@H](CCN)NC(=O)[C@H](CC(C)C)NC(=O)[C@@H](CC(C)C)NC(=O)[C@H](CCN)NC2=O)[C@@H](C)O)NC(=O)[C@H](CN)NC(=O)[C@H](Cc2ccc(O)cc2)NC1=O [Ex. 36] (I: Ac-F[Orn]Y[Dap]E[dDab][hSer]WS[Tle][dT] / II: [Dab]T[Dap][Dab][Dab][dL]L[Dab][Dab]T; lactam I:2-I:C, II:4-II:C; amide I:5-II:N) |  | 0.0625 µg/mL (≈ 0.0264 µM) |  | 0.25 µg/mL (≈ 0.106 µM) |  |  | 0.125 µg/mL (≈ 0.0528 µM) | 0.125 µg/mL (≈ 0.0528 µM) | <1% | 0.0625 µg/mL (≈ 0.0264 µM) | 0.25 µg/mL (≈ 0.106 µM) | 0.125 µg/mL (≈ 0.0528 µM) | 0.0625 µg/mL (≈ 0.0264 µM) |
| CC(C)C[C@@H]1NC(=O)[C@@H](CC(C)C)NC(=O)[C@H](CCN)NC(=O)[C@@H](NC(=O)[C@H](CCN)NC(=O)[C@@H](NC(=O)[C@H](CCN)NC(=O)CC[C@@H]2NC(=O)[C@@H](NC(=O)[C@H](Cc3ccc(O)cc3)NC(=O)[C@H](CCN)NC(=O)[C@@H](O)C(C)C)CSSC[C@@H](C(=O)N[C@H](C(=O)N[C@@H](CCC(=O)O)C(=O)N[C@H](CO)[C@@H](C)O)C(C)(C)C)NC(=O)[C@H](Cc3c[nH]c4ccccc34)NC(=O)[C@H]([C@@H](C)O)NC(=O)[C@@H](CCN)NC2=O)[C@@H](C)O)CCNC(=O)[C@H]([C@@H](C)O)NC(=O)[C@H](CCN)NC(=O)[C@H](CCN)NC1=O [Ex. 191] (I: H-[Hiv][Dab]YCE[dDab]TWC[Tle]E[Thr(ol)] / II: [Dab]T[Dab][Dab][Dab][dL]L[Dab][Dab]T; disulfide I:4-I:9; amide I:5-II:N; lactam II:4-II:C) |  | 0.5 µg/mL (≈ 0.205 µM) |  | 2 µg/mL (≈ 0.819 µM) |  |  | 1 µg/mL (≈ 0.409 µM) | 0.5 µg/mL (≈ 0.205 µM) | 1% | 0.125 µg/mL (≈ 0.0512 µM) | 0.25 µg/mL (≈ 0.102 µM) | 0.25 µg/mL (≈ 0.102 µM) | 0.125 µg/mL (≈ 0.0512 µM) |
